# Results as given in paper PMC10698726 (Molecular Pharmaceutics, 2023).
# pIC50: −log10 of the molar value. Like-named read-outs stand apart in the source and are kept apart here.
# Key:
# [1] = molecular target: T1, OCT2 (Homo sapiens, UniProt O15244); assay: Inhibition of model substrate uptake in OCT2-overexpressing HEK293 cells; conditions: 5 min; for inhibition at 5 min, 20 μM: human, OCT2-overexpressing HEK293 cells; for inhibition at 5 min, 20 μM / (S,S)-Ethambutol inhibition [%] / ASP+ inhibition [%] / N-Ethyllidocaine inhibition [%]: OCT2, 20 μM inhibitor
# T1 sequence (O15244 1-555): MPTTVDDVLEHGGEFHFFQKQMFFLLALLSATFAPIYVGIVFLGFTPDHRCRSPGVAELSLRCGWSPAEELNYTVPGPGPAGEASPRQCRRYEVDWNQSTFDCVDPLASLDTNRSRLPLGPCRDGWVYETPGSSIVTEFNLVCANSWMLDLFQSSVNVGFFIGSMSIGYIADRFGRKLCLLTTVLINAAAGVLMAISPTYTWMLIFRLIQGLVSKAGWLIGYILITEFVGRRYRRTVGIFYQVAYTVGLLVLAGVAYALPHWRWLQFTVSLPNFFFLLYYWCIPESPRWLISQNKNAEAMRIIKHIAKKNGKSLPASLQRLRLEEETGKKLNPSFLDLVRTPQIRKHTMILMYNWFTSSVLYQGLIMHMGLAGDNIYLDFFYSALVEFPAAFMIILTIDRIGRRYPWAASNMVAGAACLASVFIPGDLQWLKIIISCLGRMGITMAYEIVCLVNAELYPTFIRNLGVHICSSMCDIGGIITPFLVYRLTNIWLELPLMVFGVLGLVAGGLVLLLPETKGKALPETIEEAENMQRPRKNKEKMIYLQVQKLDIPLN
# Procedure: (§1) All experiments were carried out in transporter-overexpressing HEK293 cells. OCT1-, OCT2-, NET-, DAT-, and SERT-overexpressing cells as well as the empty-vector transfected control cell line were generated as described earlier,[26]−[28] whereas the OCT3-overexpressing HEK293 cells were generous gift of from Drs. Koepsell and Gorbulev (University of Würzburg, Germany). All cells were cultivated in Dulbecco’s modified Eagle’s medium (DMEM) supplemented with 10% (v/v) FCS, penicillin (100 U/mL), and streptomycin (100 μg/mL) and kept in culture for no longer than 30 passages.
# (§2) As for the transport experiments, 300,000 HEK293 cells were plated in poly-D-lysine-coated 24-well plates 2 days ahead of the experiment. On every plate, two wells of empty vector (EV)-transfected cells were used as a control to account for the passive influx of the model substrate, and two wells of transporter-overexpressing cells were used to determine the noninhibited uptake of the model substrate. Cells were initially washed once with 37 °C HBSS+ and then incubated with 2 μM model substrate (0.2 μM for MPP^+ uptake by MATs) with and without 20 μM inhibitor for 5 min. For concentration-dependent inhibition experiments, the cells were incubated with increasing inhibitor concentrations. The incubation was terminated by aspiration of the buffer before cells were washed twice with ice-cold HBSS+ and lysed in 80% acetonitrile. Cell lysates were transferred into a black 96-well plate for the fluorescence measurement of ASP^+ or used for sample preparation for LC–MS/MS analysis. […] Fluorescence quantification was performed in technical duplicates.
# (§3) Transporter-mediated net uptake was calculated as the difference between uptake in transporter-overexpressing cells and that in the empty-vector-transfected control. […] Vmax is the maximum transport velocity, while Km is defined as the substance concentration that is required to reach half of vmax. The ratio of vmax over Km is termed intrinsic clearance Clint. For inhibition experiments, the transport activity was calculated by using the following equation [drawing 1]
# (§4) SubstrateEV refers to the passive uptake of model substrates into the control cells and substratenoninhibited is the uptake in transporter-overexpressing cells without the presence of any inhibitor. The percent inhibition values are then calculated as described in the following [drawing 2]
# (§5) For concentration inhibition experiments, the transporter activity was plotted against the log10 of inhibitor concentrations, and the data were fitted by the following equation to determine IC50 values [drawing 3]
# (§6) Y refers to the transporter activity, whereas Ymax is the maximum and Ymin is the minimal transporter activity. X is the log10 of inhibitor concentrations, IC50 is the half-maximal inhibitory concentration, and hill slope is the slope factor.
# [2] = molecular target: T2, OCT3 (Homo sapiens, UniProt O75751); assay: Inhibition of model substrate uptake in OCT3-overexpressing HEK293 cells; assay type: cell-based
# T2 construct: expressed in transfected cells; host or cells: HEK293
# T2 sequence (O75751 1-556): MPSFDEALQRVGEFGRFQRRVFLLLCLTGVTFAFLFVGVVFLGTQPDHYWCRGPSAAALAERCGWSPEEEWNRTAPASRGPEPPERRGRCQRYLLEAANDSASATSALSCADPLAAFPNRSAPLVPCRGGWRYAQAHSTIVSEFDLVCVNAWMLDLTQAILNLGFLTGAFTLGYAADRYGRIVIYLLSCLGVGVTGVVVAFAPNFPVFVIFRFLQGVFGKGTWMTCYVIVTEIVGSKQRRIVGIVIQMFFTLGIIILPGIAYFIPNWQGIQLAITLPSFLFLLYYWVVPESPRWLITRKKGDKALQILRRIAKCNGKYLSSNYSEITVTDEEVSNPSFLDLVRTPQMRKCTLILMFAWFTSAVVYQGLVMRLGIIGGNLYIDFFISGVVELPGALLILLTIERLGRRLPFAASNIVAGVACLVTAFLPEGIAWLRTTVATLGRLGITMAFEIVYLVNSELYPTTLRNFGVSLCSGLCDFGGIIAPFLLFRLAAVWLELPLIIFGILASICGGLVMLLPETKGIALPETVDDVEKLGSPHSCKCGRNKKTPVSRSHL
# Procedure: as §1, §2, §3, §4, §5, §6
# [3] = molecular target: T3, OCT1 (Homo sapiens, UniProt O15245); assay: Inhibition of model substrate uptake in OCT1-overexpressing HEK293 cells; assay type: cell-based; set-up: expressed in transfected cells; host or cells: HEK293; conditions: for inhibition at 5 min, 20 μM: OCT1-overexpressing HEK293 cells
# T3 sequence (O15245 1-554): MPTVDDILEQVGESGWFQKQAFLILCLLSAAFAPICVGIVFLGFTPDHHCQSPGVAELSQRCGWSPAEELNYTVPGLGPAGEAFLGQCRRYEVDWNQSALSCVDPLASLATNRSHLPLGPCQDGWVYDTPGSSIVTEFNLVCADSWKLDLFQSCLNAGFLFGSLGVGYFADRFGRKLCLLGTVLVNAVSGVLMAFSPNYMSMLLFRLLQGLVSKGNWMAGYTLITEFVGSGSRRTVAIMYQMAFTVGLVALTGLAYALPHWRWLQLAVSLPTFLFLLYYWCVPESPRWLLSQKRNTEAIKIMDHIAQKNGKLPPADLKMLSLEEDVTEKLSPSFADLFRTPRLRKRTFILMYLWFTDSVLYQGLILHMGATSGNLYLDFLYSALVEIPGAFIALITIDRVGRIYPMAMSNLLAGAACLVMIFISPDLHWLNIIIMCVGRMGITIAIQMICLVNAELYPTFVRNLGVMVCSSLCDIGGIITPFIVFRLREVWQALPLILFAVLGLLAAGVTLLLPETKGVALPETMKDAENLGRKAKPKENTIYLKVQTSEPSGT
# Procedure: Koepsell and Gorbulev (University of Würzburg, Germany).
# Fluorescence quantification was performed in technical duplicates.
# [4] = pH 7.4, probe (S,S)-ethambutol (2 μM), (S,S)-Ethambutol inhibition [%], 2 μM (S,S)-ethambutol
# [5] = pH 7.4, probe ASP+ (2 μM), ASP+ inhibition [%], 2 μM ASP+
# [6] = pH 7.4, probe N-ethyllidocaine (2 μM), N-Ethyllidocaine inhibition [%], 2 μM N-ethyllidocaine
# [7] = HEK293, 5 min, read-out: (S)-Zolmitriptan inhibition [%], OCT3, 20 μM inhibitor, 2 μM (S)-zolmitriptan, 5 min
# [8] = HEK293, 5 min, read-out: (S,S)-Ethambutol inhibition [%], OCT3, 20 μM inhibitor, 2 μM (S,S)-ethambutol, 5 min
# [9] = human, pH 7.4, probe (S,S)-ethambutol (2 μM), (S,S)-Ethambutol inhibition [%], OCT1, 20 μM inhibitor, 2 μM (S,S)-ethambutol, 5 min
# [10] = human, pH 7.4, probe ASP+ (2 μM), OCT1, 20 μM inhibitor, 2 μM ASP+, 5 min, mean of three experiments, read-out: ASP+ inhibition [%]
# [11] = human, pH 7.4, probe sumatriptan (2 μM), OCT1, 20 μM inhibitor, 2 μM sumatriptan, 5 min, read-out: Sumatriptan inhibition [%]
# [12] = OCT3, 20 μM inhibitor, 2 μM ASP+, 5 min
# [13] = OCT1, 20 μM inhibitor, 2 μM ASP+, 5 min, mean of three experiments
SMILES,"inhibition at 5 min, 20 μM [1, 4] [%]","inhibition at 5 min, 20 μM [1, 5] [%]","inhibition at 5 min, 20 μM [1, 6] [%]","inhibition at 20 µM [2, 7] [%]","inhibition at 20 µM [2, 8] [%]","inhibition at 5 min, 20 μM [3, 9] [%]","inhibition at 5 min, 20 μM [3, 10] [%]","inhibition at 5 min, 20 μM [3, 11] [%]","(S,S)-Ethambutol inhibition [%] ([1]; 2 μM (S,S)-ethambutol)",ASP+ inhibition [%] ([1]; 2 μM ASP+),N-Ethyllidocaine inhibition [%] ([1]; 2 μM N-ethyllidocaine),"ASP+ inhibition [%] [2, 12] [%]","ASP+ inhibition [%] [3, 13] [%]",further results
CCCN[C@@H]1CCc2nc(N)sc2C1 [(R)-Pramipexole],10.5,43.3,37.1,13,23.1,51.6,19.8,55.8,–,–,–,–,–,"pIC50 ([1]; IC50, OCT2, Table S5, 2 μM ASP+ as model substrate): 4.69; inhibition at 20 µM ([2]; HEK293, OCT3, 20 μM inhibitor, 2 μM ASP+, 5 min, read-out: ASP+ inhibition [%]): 5.3%; pIC50 ([3]; OCT1, Table S5, 2 μM ASP+ or ethambutol as model substrate, 5 min, read-out: IC50): 4.69"
CC(C)NC[C@@H](O)COc1cccc2ccccc12 [(R)-Propranolol],25,47.8,20,–,–,79.9,44.8,84.3,–,–,–,–,–,"pIC50 ([2]; OCT3, Table 1, read-out: IC50): 3.71"
C#CCN[C@@H]1CCc2ccccc21 [(R)-Rasagiline],–,–,–,10.3,13.4,32,–,42.7,51.3,51.7,56.7,-11.8,-1.3,–
CC(C)(C)NC[C@H](O)c1ccc(O)c(CO)c1 [(R)-Salbutamol],–,–,–,–,19.5,12.2,5.3,–,-0.3,12.8,-15.0,10.3,–,"(S)-Zolmitriptan inhibition [%] ([2]; OCT3, 20 μM inhibitor, 2 μM (S)-zolmitriptan, 5 min): -6.4%; Sumatriptan inhibition [%] ([3]; OCT1, 20 μM inhibitor, 2 μM sumatriptan, 5 min): -18.8%"
CC(C)C[C@@H](N(C)C)C1(c2ccc(Cl)cc2)CCC1 [(R)-Sibutramine],–,–,–,–,–,–,–,–,–,81.6,51.2,2.6,41.5,"inhibition at 20 µM ([2]; HEK293, 5 min, read-out: (S)-Zolmitriptan inhibition [%]): 38.1%; inhibition at 20 µM ([2]; HEK293, 5 min, read-out: (S,S)-Ethambutol inhibition [%]): 35.5%; Sumatriptan inhibition [%] ([3]; human, pH 7.4): 74.0%"
